Measured values published in patent publication US11192902B1, “Heterocyclic diazenyl pyridinone copper(II) complexes as pharmacological antitumor agents” (King Abdulaziz University, priority 2020, dated 2021).

Key:
[1] = tested on: human primary hepatocytes THLE-2 (normal cell line); test: Cytotoxic activity test on normal cell line THLE-2 (MTT assay); assay type: cell-based
Description: The samples were tested against the human primary hepatocytes THLE-2 (normal cell line, ATCC). Cells were maintained at sub-confluency at 37° C. in humidified air containing 5% CO2. The samples' concentrations ranged between (100 to 0.78 μg/ml) and the MTT assay was used to assess cell death.

[2] = tested on: MCF-7 human breast adenocarcinoma cells; test: Cytotoxicity against MCF-7 human breast adenocarcinoma cells (MTT); assay type: cell-based; conditions: MCF-7 cells, 48 hrs

For `CCCCCCn1c([O-])c(N=Nc2ccc(C)cc2)c(C)c(C#N)c1=O.CCCCCCn1c([O-])c(N=Nc2ccc(C)cc2)c(C)c(C#N)c1=O.[Cu+2]` [D4], the “Mean IC50, THLE-2 human normal hepatocytes” value ([1]; THLE-2 cells, 48 hrs, MTT, 100 to 0.78 μg/ml, mean) was 169.76 μg/mL, the “effect on the normal cell line (safety)” value ([1]; THLE-2 normal cell line, at the high concentration of 100 ppm) was “safe” and the “Mean IC50, MCF-7 human breast adenocarcinoma cells” value [2] was 83.72 µg/mL.
